Data on 2 compounds can be found in US20090299044A1 (priority 2006, published 2009).

The target in one series is human Kv1.1 (Homo sapiens, UniProt Q09470). In words: cell-based. Also on record: expressed in transfected cells; host or cells: HEK293.
The target in another series is human Kv1.3 channel (Homo sapiens, UniProt P22001). The series can be described thus: cell-based. In kind it is cell-based.
The target of a further series is T1, human Kv1.1 (HEK293) (Homo sapiens, UniProt Q09470).
T1 construct: expressed in transfected cells; host or cells: HEK293
T1 sequence (Q09470 whole entry): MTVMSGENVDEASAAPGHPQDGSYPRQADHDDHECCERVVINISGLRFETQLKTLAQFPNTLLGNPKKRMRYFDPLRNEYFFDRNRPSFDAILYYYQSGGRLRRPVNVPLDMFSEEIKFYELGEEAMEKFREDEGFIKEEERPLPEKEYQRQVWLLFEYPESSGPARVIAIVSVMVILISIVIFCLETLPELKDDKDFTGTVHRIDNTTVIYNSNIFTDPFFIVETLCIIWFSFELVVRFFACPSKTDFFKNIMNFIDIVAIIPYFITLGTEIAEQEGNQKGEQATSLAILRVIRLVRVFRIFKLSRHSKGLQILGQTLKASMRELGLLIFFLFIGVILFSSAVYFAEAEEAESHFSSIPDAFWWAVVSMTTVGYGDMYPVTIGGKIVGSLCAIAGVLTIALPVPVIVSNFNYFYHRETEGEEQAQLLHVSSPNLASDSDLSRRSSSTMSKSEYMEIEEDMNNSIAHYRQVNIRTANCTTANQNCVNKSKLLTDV
The series can be described thus: cell-based.

Another series addresses T2, human Kv1.3 (CHO) (Homo sapiens, UniProt P22001).
T2 construct: expressed in transfected cells; host or cells: CHO
In words: cell-based.

For series [1] the following is noted: rat, in vivo, iv, 1 mg/kg.
For series [2] the following is noted: cited from earlier work.

SMILES strings stand for the structures. Bridge positions count the residues as written; N and C are the ends. Peptide text beside a SMILES is read from it.

As a reminder, the IC50 is the concentration at which inhibition is half-maximal. A higher IC50 goes with weaker potency.

Sequence of human Kv1.1 (Q09470 whole entry): as above
Sequence of human Kv1.3 channel (P22001 whole entry): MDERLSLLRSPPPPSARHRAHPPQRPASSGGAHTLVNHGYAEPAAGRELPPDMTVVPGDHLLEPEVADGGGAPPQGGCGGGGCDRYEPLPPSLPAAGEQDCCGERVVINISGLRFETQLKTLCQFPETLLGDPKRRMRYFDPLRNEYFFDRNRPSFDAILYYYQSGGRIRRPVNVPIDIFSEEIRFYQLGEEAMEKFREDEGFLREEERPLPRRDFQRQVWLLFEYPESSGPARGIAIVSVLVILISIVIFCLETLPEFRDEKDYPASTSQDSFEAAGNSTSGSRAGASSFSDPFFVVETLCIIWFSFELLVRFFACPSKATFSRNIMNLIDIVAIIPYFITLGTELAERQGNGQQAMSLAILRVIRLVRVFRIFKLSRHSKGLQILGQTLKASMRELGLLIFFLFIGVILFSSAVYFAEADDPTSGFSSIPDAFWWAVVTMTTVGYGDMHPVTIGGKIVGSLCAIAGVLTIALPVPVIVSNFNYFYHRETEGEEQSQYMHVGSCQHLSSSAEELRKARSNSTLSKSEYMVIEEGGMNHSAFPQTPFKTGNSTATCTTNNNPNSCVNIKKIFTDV
T2 sequence (P22001 whole entry): as above

As to `CC[C@H](C)[C@@H]1NC(=O)[C@H](CCCCN)NC(=O)[C@@H](NC(=O)[C@H](CCCCN)NC(=O)[C@@H](NC(=O)[C@H](CC(N)=O)NC(=O)[C@@H](NC(=O)[C@@H](NC(=O)[C@@H](NC(=O)CN)C(C)C)[C@@H](C)CC)[C@@H](C)CC)C(C)C)CSSC[C@@H]2NC(=O)[C@H](C)NC(=O)CNC(=O)[C@H](Cc3ccccc3)NC(=O)[C@H](CCCNC(=N)N)NC(=O)[C@H](CCSC)NC(=O)CNC(=O)[C@H](C)NC(=O)[C@H](CCCCN)NC(=O)[C@H](CCCCN)NC(=O)[C@@H]3CSSC[C@@H](C(=O)N[C@H](C(=O)N4CCC[C@H]4C(=O)N[C@@H](CCCCN)C(=O)O)[C@@H](C)O)NC(=O)[C@H](Cc4c[nH]cn4)NC(=O)[C@H](CSSC[C@H](NC(=O)[C@H](CCC(N)=O)NC(=O)[C@H](CCCNC(=N)N)NC(=O)[C@H](CO)NC1=O)C(=O)N[C@@H](CC(C)C)C(=O)N[C@@H](CCC(=O)O)C(=O)N1CCC[C@H]1C(=O)N3)NC(=O)[C@H](CCCCN)NC(=O)CNC(=O)[C@H](CC(N)=O)NC(=O)[C@H](CCSC)NC2=O` [K27A] (H-GVIINVKCKISRQCLEPCKKAGMRFGACMNGKCHCTPK-OH; disulfide 8-28, 14-33, 18-35), the IC50 is 10.1 nM at human Kv1.1, 0.289 nM at human Kv1.3 channel, over 3 nM at human Kv1.1 (HEK293) and 0.232 nM at human Kv1.3 (CHO).
On to `CC[C@H](C)[C@@H]1NC(=O)[C@@H](NC(=O)[C@H](CO)NC(=O)[C@@H](N)CCCNC(=N)N)CSSC[C@@H](C(=O)O)NC(=O)[C@H]([C@@H](C)O)NC(=O)CNC(=O)[C@@H]2CSSC[C@@H]3NC(=O)[C@H](CCC(N)=O)NC(=O)[C@H](Cc4ccccc4)NC(=O)[C@H](C)NC(=O)[C@H]([C@@H](C)O)NC(=O)[C@H](CSSC[C@H](NC(=O)[C@H](Cc4ccccc4)NC(=O)[C@H](CO)NC(=O)[C@H](CC(C)C)NC(=O)[C@H](CCCNC(=N)N)NC(=O)[C@H](Cc4ccc(O)cc4)NC(=O)[C@H](CCCCN)NC(=O)[C@H](CCSC)NC(=O)[C@H](CO)NC(=O)[C@H](Cc4cnc[nH]4)NC(=O)[C@H](CCCCN)NC3=O)C(=O)N[C@@H](CCCNC(=N)N)C(=O)N[C@@H](CCCCN)C(=O)N[C@@H]([C@@H](C)O)C(=O)N2)NC(=O)[C@H](CCCNC(=N)N)NC(=O)[C@H](CO)NC(=O)[C@H](CCCCN)NC(=O)[C@@H]2CCCN2C(=O)[C@H]([C@@H](C)CC)NC(=O)[C@H]([C@@H](C)O)NC(=O)[C@H](CC(=O)O)NC1=O` [ShK[1-35]], for which the “duration of significant suppression of Kv1.3 current (<70 POC) by 5% serum Test solutions” value in series [1] was at most 1 h. Moreover, the half-life in vivo in series [2] is about 20 min. Moreover, the “half-life of the native ShK molecule” value in series [2] (in vivo) is listed as “approximately 0.33 hour”.
